Like-named read-outs stand apart in the source and are kept apart here. Where a SMILES comes first, the peptide text is derived from it.
How the values were obtained:
OXPHOS gene expression = format: cell-based, mouse
[1] = tested on: mitochondrial membrane potential; format: cell-based, mouse
cytochrome c = format: cell-based, mouse
mtOXPHOS transcripts = format: cell-based, mouse; details: for mito-OXPHOS Z: Table 7, C2C12 myotubes, 48 h, composite Z-score
reactive oxygen species = format: cell-based, mouse
[2] = tested on: cellular dehydrogenase activity
nuOXPHOS transcripts = format: cell-based, mouse; details: for nucOXPHOS Z: Table 7, C2C12 myotubes, 48 h, composite Z-score
[3] = composite Z-score vs DMSO, Conc 15.42 μM
[4] = composite Z-score vs mock-treated (DMSO) wells, concentration of each compound in μM
[5] = composite Z-score vs DMSO, Conc 15.08 μM
[6] = normalized composite Z-score vs mock-treated (DMSO) wells, Conc 20 μM
[7] = composite Z-score vs DMSO, Conc 20 μM
[8] = composite Z-score vs DMSO wells, Conc 20 μM
[9] = Conc 20 μM, normalized score vs mock-treated (DMSO) wells

CC(C)NC[C@H](O)COc1cccc2ccccc12 [(S)-propranolol]
GE-HTS (OXPHOS gene expression; [3]): 0.857 | Viability (C2C12 myotubes; [3]): 0.307 | ΔΨm [1, 3]: −0.340 | cyt c (cytochrome c; [3]): 0.349 | mitoOX (mtOXPHOS transcripts; [3]): 1.161 | ROS (reactive oxygen species; [3]): −0.185 | MTT [2, 3]: −0.351 | nucOX (nuOXPHOS transcripts; [3]): 0.623

COc1ccc([C@H]2COc3c(ccc(O)c3OC)C2)c(OC)c1O [(−)-duartin]
GE-HTS (OXPHOS gene expression; [4]): −0.048 | Viability (C2C12 myotubes; [4]): 1.175 | ΔΨm [1, 4]: 0.392 | cyt c (cytochrome c; [4]): −0.472 | mitoOX (mtOXPHOS transcripts; [4]): 0.466 | ROS (reactive oxygen species; [4]): 0.900 | MTT [2, 4]: −0.571 | nucOX (nuOXPHOS transcripts; [4]): −0.331

COc1ccc(C[C@H]2NC[C@H](O)[C@H]2OC(C)=O)cc1 [Anisomycin, reference compound]
GE-HTS (OXPHOS gene expression; [5]): −0.353 | Viability (C2C12 myotubes; [5]): −2.835 | ΔΨm [1, 5]: −1.537 | cyt c (cytochrome c; [5]): −2.841 | mito-OXPHOS Z (mtOXPHOS transcripts): −3.55 | mitoOX (mtOXPHOS transcripts; [5]): −3.545 | ROS (reactive oxygen species; [5]): −2.958 | MTT [2, 5]: −4.623 | nucOXPHOS Z (nuOXPHOS transcripts): 1.26 | nucOX (nuOXPHOS transcripts; [5]): 1.256 | nuOXPHOS expression (nuOXPHOS transcripts; screen, relative to mtOXPHOS, in words): preferentially increase

COc1cccc2c1C(=O)c1c(O)c3c(c(O)c1C2=O)C[C@@](O)(C(C)=O)C[C@@H]3O[C@H]1C[C@H](N)[C@H](O)[C@H](C)O1 [Daunorubicin, reference compound]
GE-HTS (OXPHOS gene expression): −1.008 | Viability (C2C12 myotubes): −3.547 | ΔΨm [1]: −2.337 | cyt c (cytochrome c): −3.722 | mitoOX (mtOXPHOS transcripts): 1.373 | mito-OXPHOS Z (mtOXPHOS transcripts): 1.37 | ROS (reactive oxygen species): −2.398 | MTT [2]: −5.009 | nucOX (nuOXPHOS transcripts): −2.094 | nucOXPHOS Z (nuOXPHOS transcripts): −2.09

Cc1c(O)c(O)cc2c1CC=C1[C@@]2(C)CC[C@@]2(C)[C@@H]3C[C@](C)(C(=O)O)CC[C@]3(C)CC[C@]12C [Dihydrocelastrol, reference compound]
GE-HTS (OXPHOS gene expression; [6]): −0.295 | Viability (C2C12 myotubes; [6]): −4.120 | ΔΨm [1, 6]: −3.514 | cyt c (cytochrome c; [6]): −4.583 | mito-OXPHOS Z (mtOXPHOS transcripts): −5.22 | mitoOX (mtOXPHOS transcripts; [6]): −5.217 | ROS (reactive oxygen species; [6]): −3.065 | MTT [2, 6]: −5.524 | nucOXPHOS Z (nuOXPHOS transcripts): 2.18 | nucOX (nuOXPHOS transcripts; [6]): 2.183

C[C@H](N)CO [I-alaninol]
GE-HTS (OXPHOS gene expression; [7]): −0.652 | Viability (C2C12 myotubes; [7]): −0.353 | ΔΨm [1, 7]: −0.428 | cyt c (cytochrome c; [7]): 0.301 | mitoOX (mtOXPHOS transcripts; [7]): −0.738 | ROS (reactive oxygen species; [7]): 0.242 | MTT [2, 7]: −0.342 | nucOX (nuOXPHOS transcripts; [7]): −0.555

CC(C)C[C@H](N)C(=O)N[C@@H](C)C(=O)O [L-leucyl-L-alanine] (H-Leu-Ala-OH)
GE-HTS (OXPHOS gene expression; [7]): 0.365 | Viability (C2C12 myotubes; [7]): −0.600 | ΔΨm [1, 7]: −0.307 | cyt c (cytochrome c; [7]): −0.861 | mitoOX (mtOXPHOS transcripts; [7]): 0.093 | ROS (reactive oxygen species; [7]): 0.301 | MTT [2, 7]: −0.320 | nucOX (nuOXPHOS transcripts; [7]): 0.465

O[C@H]1[C@H]2c3cc4c(cc3CN3CCC(=C[C@@H]1O)[C@H]23)OCO4 [Lycorine, reference compound]
GE-HTS (OXPHOS gene expression; [7]): −1.119 | Viability (C2C12 myotubes; [7]): −2.922 | ΔΨm [1, 7]: −2.570 | cyt c (cytochrome c; [7]): −1.288 | mitoOX (mtOXPHOS transcripts; [7]): −5.387 | ROS (reactive oxygen species; [7]): −2.639 | MTT [2, 7]: −4.612 | nucOX (nuOXPHOS transcripts; [7]): 1.103

NCCNC(=O)c1ccc(Cl)cc1 [N-(2-aminoethyl)-4-chlorobenzamide]
GE-HTS (OXPHOS gene expression; [8]): 0.065 | Viability (C2C12 myotubes; [8]): −1.090 | ΔΨm [1, 8]: −1.051 | cyt c (cytochrome c; [8]): −0.423 | mitoOX (mtOXPHOS transcripts; [8]): −0.205 | ROS (reactive oxygen species; [8]): 1.036 | MTT [2, 8]: −0.669 | nucOX (nuOXPHOS transcripts; [8]): 0.175

CC(=O)N[C@@H](CC(=O)O)C(=O)O [N-acetylaspartic acid]
GE-HTS (composite Z-score) (OXPHOS gene expression; [9]): −0.670 | Viability (composite Z-score) (C2C12 myotubes; [9]): −0.266 | ΔΨm (composite Z-score) [1, 9]: −0.663 | cyt c (composite Z-score) (cytochrome c; [9]): 0.753 | mitoOX (composite Z-score) (mtOXPHOS transcripts; [9]): −1.046 | ROS (composite Z-score) (reactive oxygen species; [9]): 0.309 | MTT (composite Z-score) [2, 9]: −0.456 | nucOX (composite Z-score) (nuOXPHOS transcripts; [9]): −0.436

CC(=O)N[C@H]1[C@H]([C@@H](O)[C@@H](O)CO)O[C@@](O)(C(=O)O)C[C@@H]1O [N-acetylneuramic acid]
GE-HTS (OXPHOS gene expression; [8]): 1.061 | Viability (C2C12 myotubes; [8]): 1.009 | ΔΨm [1, 8]: 0.053 | cyt c (cytochrome c; [8]): −0.254 | mitoOX (mtOXPHOS transcripts; [8]): 0.813 | ROS (reactive oxygen species; [8]): 0.063 | MTT [2, 8]: −0.118 | nucOX (nuOXPHOS transcripts; [8]): 1.111

CSCC[C@H](NC=O)C(=O)N[C@@H](CC(C)C)C(=O)N[C@@H](Cc1ccccc1)C(=O)O [N-formylmethionyl-leucylphenylalanine]
GE-HTS (OXPHOS gene expression; [8]): −0.370 | Viability (C2C12 myotubes; [8]): 0.354 | ΔΨm [1, 8]: 0.476 | cyt c (cytochrome c; [8]): 0.374 | mitoOX (mtOXPHOS transcripts; [8]): −0.051 | ROS (reactive oxygen species; [8]): 1.017 | MTT [2, 8]: −1.240 | nucOX (nuOXPHOS transcripts; [8]): −0.517

Source: patent US20090143279A1 (priority 2007, published 2009)
